Assay results taken from ChEMBL document CHEMBL1125330, “N-substituted pyrazino[2,3-c][1,2,6]thiadiazine 2,2-dioxides. A new class of diuretics” (J Med Chem, 1992).

Species: Rattus norvegicus
Test: Mean sodium excretion in rats (Control/Drug treatment value); value 0.42/0.65
Type: ADME, organism-based
Conditions: in vivo

## CCCc1nc2c(nc1C)C(N)=NS(=O)(=O)N2CC
  Na: 1.5
